# Experimental data from ChEMBL document CHEMBL6153124, “Structural Chemistry of Helicase Inhibition” (J Med Chem, 2025).
# Assays:
# [1] = Inhibition of Coxsackievirus B3 2C protein
# [2] = target: SWI/SNF-related matrix-associated actin-dependent regulator of chromatin subfamily A member 2 (Homo sapiens, UniProt P51531); assay: Inhibition of SMARCA2 (unknown origin)
# [3] = Inhibition of HSV-1 helicase DNA dependent ATPase activity assessed as reduction in helicase-primase complex; parameters: species or system Human alphaherpesvirus 1
# [4] = target: T1, Bifunctional 3'-5' exonuclease/ATP-dependent helicase WRN (Homo sapiens, UniProt Q14191); assay: Inhibition of N-terminal Hexa-histidine-tagged human recombinant WRN helicase domain (517 to 945 residues) extracted from Baculovirus infected Sf9 cells by fluorescence based analysis
# T1 sequence (Q14191 whole entry, the tested form may be a part): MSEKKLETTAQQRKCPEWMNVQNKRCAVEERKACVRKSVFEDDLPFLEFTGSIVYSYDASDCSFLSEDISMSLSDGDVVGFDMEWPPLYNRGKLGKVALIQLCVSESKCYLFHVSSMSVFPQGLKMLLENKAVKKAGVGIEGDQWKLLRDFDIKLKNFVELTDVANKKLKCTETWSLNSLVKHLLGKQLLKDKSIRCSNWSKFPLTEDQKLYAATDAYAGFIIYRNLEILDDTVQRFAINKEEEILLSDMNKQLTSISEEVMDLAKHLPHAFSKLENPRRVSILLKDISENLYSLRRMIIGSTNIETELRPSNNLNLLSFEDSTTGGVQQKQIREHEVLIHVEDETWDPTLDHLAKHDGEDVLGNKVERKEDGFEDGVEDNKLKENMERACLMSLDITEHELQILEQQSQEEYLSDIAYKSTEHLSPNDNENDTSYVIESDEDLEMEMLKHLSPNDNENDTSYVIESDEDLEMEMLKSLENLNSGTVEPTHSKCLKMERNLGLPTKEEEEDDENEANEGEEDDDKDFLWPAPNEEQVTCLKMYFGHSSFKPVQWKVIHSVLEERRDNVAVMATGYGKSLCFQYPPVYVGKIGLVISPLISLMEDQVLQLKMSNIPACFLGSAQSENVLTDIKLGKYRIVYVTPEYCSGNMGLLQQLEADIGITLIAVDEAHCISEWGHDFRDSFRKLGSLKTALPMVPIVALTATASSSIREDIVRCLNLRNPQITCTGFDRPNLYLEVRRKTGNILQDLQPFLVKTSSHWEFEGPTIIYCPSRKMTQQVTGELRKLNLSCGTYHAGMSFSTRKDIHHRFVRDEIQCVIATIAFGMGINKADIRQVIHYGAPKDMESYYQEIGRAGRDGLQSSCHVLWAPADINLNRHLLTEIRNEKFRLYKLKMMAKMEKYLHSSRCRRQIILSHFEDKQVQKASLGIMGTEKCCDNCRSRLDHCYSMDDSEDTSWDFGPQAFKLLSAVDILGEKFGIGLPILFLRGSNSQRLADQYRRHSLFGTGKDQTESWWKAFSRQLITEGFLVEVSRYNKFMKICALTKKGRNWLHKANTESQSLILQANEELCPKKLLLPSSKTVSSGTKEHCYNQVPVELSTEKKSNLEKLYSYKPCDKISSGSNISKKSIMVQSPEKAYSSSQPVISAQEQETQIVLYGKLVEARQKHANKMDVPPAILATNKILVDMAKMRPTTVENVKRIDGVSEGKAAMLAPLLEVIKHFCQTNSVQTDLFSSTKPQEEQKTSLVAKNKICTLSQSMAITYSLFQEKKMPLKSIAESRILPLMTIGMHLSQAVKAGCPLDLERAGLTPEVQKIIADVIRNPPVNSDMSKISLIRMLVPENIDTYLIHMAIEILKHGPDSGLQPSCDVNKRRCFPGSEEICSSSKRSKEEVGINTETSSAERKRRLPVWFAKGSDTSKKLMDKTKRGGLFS
# [5] = target: T1, Bifunctional 3'-5' exonuclease/ATP-dependent helicase WRN; assay: Inhibition of N-terminal WRN (unknown origin)
# [6] = target: Eukaryotic initiation factor 4A-I (Homo sapiens, UniProt P60842); assay: Inhibition of recombinant full length 6xHis-tagged EIF4A1 (unknown origin) by FP assay
# Eukaryotic initiation factor 4A-I, sequence (P60842 whole entry): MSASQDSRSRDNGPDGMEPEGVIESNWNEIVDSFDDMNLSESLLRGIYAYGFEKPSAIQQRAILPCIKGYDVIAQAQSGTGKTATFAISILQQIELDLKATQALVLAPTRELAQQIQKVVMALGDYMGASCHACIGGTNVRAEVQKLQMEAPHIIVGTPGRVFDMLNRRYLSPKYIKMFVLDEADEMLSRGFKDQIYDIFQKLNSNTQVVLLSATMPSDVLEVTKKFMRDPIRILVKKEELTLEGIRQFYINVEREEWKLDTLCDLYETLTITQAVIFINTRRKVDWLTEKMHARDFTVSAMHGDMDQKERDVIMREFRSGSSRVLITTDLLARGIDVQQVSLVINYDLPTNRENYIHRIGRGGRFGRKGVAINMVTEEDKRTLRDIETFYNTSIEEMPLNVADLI
# [7] = Binding affinity to Coxsackievirus B3 2C protein assessed as dissociation constant
# SWI/SNF-related matrix-associated actin-dependent regulator of chromatin subfamily A member 2, sequence (P51531 whole entry): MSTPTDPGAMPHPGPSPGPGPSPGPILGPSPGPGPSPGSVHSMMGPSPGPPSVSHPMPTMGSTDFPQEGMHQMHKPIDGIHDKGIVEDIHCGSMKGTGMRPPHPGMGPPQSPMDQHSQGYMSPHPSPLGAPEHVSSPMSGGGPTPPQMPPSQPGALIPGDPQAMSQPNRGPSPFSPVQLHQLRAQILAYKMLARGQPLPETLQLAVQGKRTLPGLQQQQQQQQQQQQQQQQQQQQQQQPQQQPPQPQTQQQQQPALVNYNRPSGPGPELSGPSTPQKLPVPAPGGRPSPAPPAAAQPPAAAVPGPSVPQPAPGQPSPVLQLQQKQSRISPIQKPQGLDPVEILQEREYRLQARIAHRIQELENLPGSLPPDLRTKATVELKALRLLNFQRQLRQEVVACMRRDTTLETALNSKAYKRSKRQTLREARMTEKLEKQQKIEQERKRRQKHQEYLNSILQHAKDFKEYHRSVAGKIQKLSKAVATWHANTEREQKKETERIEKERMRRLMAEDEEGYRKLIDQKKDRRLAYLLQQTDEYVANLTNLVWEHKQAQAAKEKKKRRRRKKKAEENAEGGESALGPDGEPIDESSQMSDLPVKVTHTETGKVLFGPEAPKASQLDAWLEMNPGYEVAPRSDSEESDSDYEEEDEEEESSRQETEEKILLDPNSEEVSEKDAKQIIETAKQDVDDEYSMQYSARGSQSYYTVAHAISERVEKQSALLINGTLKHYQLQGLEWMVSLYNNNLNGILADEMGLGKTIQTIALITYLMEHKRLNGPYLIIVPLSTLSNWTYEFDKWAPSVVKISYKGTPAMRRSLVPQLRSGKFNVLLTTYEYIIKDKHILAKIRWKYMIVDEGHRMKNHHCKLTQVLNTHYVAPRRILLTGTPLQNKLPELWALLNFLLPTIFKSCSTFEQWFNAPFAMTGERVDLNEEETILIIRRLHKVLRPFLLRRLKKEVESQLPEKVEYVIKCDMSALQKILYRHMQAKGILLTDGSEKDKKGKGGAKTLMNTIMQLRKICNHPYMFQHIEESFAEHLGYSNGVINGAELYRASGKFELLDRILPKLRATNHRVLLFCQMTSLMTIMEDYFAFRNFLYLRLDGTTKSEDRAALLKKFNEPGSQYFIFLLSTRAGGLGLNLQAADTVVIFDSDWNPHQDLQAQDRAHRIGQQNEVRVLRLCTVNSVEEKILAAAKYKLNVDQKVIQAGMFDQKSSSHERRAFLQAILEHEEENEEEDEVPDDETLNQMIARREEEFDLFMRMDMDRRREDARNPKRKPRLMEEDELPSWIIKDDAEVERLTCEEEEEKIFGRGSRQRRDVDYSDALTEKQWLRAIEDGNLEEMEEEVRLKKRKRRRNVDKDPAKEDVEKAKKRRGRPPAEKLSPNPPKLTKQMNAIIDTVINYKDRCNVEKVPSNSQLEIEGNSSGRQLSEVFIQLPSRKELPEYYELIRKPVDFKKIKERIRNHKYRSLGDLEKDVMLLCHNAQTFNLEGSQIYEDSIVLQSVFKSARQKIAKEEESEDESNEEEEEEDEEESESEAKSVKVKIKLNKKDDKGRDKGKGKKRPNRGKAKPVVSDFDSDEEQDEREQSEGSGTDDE
smiles,measurement,setting,value
CNCC[C@H](Oc1ccc(C(F)(F)F)cc1)c1ccccc1,EC50,[1],5000 nM
O=C(Nc1cc(C(F)F)ns1)Nc1cc(F)ncc1CO,IC50,[2],< 5 nM
Cc1cccc(C)c1N(CC(=O)Nc1ccc(-c2ncon2)cc1)C(=O)C1CCS(=O)(=O)CC1,IC50,[3],78 nM
CS(=O)(=O)CC[C@@H](NC(=O)c1cnc(C(F)(F)F)nc1Oc1ccccc1)C1CC1,IC50,[4],140 nM
same,IC50,[5],140 nM
CC(/C=C/C(C)=C/[C@@H]1Cc2nc(cs2)CC[C@@H](N)CC(=O)O[C@@H](C)C/C(C)=C/C=C\C(=O)O1)=C\CN(C)C,IC50,[6],1 nM
CNCCC(Oc1ccc(C(F)(F)F)cc1)c1ccccc1 (centres undefined) [FLUOXETINE],Kd,[7],9500 nM
same,EC50,[1],~5000 nM
COC(=O)[C@H]1[C@@H](O)[C@@]2(O)c3c(OC)cc(O[C@@H]4O[C@@H]([C@H](O)CO)CO[C@H]4OC)cc3O[C@@]2(c2ccc(OC)cc2)[C@@H]1c1ccccc1 [SILVESTROL],IC50,[6],60 nM
